pEC50: −log10 of the molar value.
Legend:
Experiment in all cases: microbe, parasite or virus in culture
Format in all cases: cell-based
[1] = tested on: influenza A virus minigenome (PB2, PB1, PA, NP; luciferase reporter) in 293T cells, RNP_Alaska; conditions: HEK-293T, 48 h
[2] = tested on: influenza A virus minigenome (PB2, PB1, PA, NP; luciferase reporter) in 293T cells, RNP_CAL; conditions: HEK-293T, 48 h, read-out: RNP_CAL_EC50
[3] = tested on: influenza A virus minigenome (PB2, PB1, PA, NP; luciferase reporter) in 293T cells, RNP_Hubei; conditions: HEK-293T, 48 h

| SMILES | pEC50 [1] | pEC50 [2] | pEC50 [3] |
| --- | --- | --- | --- |
| COC(=O)OCOc1c2n(ncc1=O)[C@@H]([C@H](c1cccc(F)c1)c1cccc(F)c1F)[C@H]1CCCN1C2=O [Example 95, (((9aR,10S)-10-((R)-(2,3-difluorophenyl)(3-fluorophenyl)methyl)-3,5-dioxo-3,5,8,9,9a,10-hexahydro-7H-pyrrolo[1′,2′:4,5]pyrazino[1,2-b]pyridazin-4-yl)oxy)methyl methyl carbonate] | > 7.00 | > 7.00 | > 7.00 |
| CCC(=O)OCOc1c2n(ncc1=O)[C@@H]([C@H](c1ccccc1)c1cccc(F)c1F)[C@H]1CCCN1C2=O [Example 77, (((9aR,10S)-10-((R)-(2,3-difluorophenyl)(phenyl)methyl)-3,5-dioxo-3,5,8,9,9a,10-hexahydro-7H-pyrrolo[1′,2′:4,5]pyrazino[1,2-b]pyridazin-4-yl)oxy)methyl propionate] | > 7.00 | > 7.00 | > 7.00 |
| O=C1c2c(O)c(=O)cnn2[C@@H]([C@H](c2ccccc2)c2c(F)ccc(F)c2F)[C@H]2CCCN12 [Example 16, (9aR,10S)-4-hydroxy-10-((R)-phenyl(2,3,6-trifluorophenyl)methyl)-8,9,9a,10-tetrahydro-7H-pyrrolo[1′,2′:4,5]pyrazino[1,2-b]pyridazine-3,5-dione] | > 7.00 | > 7.00 | > 7.00 |
| O=C1c2c(O)c(=O)cnn2[C@@H]([C@H](c2ccc(F)cc2)c2ccc(OC(F)(F)F)cc2)[C@H]2CCCN12 [Example 23, (9aR,10S)-10-((S)-(4-fluorophenyl)(4-(trifluoromethoxy)phenyl)methyl)-4-hydroxy-8,9,9a,10-tetrahydro-7H-pyrrolo[1′,2′:4,5]pyrazino[1,2-b]pyridazine-3,5-dione] | ≤ 6.00 | 6.00 to 7.00 | 6.00 to 7.00 |

— patent US12071441B2, “10-(di(phenyl)methyl)-4-hydroxy-8,9,9A,10-tetrahydro-7H-pyrrolo[1′,2′:4,5]pyrazino[1,2-b]pyridazine-3,5-dione derivatives and related compounds as inhibitors of the orthomyxovirus replication for treating influenza” (Novartis AG, priority 2018, dated 2024)
